Numbers after ± are expanded uncertainties.
Columns and labels:
[1] = DTA
[2] = Molar enthalpy of transition or fusion; details: DSC

Row | Compound | Triple point temperature ([1]; Crystal 1) [K] | Triple point temperature ([1]; Crystal 2) [K] | Molar enthalpy of transition or fusion ([2]; Crystal 1) [kcal/mol] | Molar enthalpy of transition or fusion ([2]; Crystal 2) [kcal/mol] | Triple point temperature ([1]; Crystal 3) [K] | Molar enthalpy of transition or fusion ([2]; Crystal 3) [kcal/mol]
1 | Clc1cc(Cl)c2c(Cl)c(Cl)ccc2c1Cl [1,2,4,5,6-pentachloronaphthalene] | 412.65 ± 3.2 | 404.15 ± 3.2 | 2.01 ± 0.179 | 3.74 ± 0.191 |  | 
2 | Clc1cc(Cl)c2c(Cl)c(Cl)cc(Cl)c2c1 [1,2,4,6,8-pentachloronaphthalene] | 428.95 ± 3.2 |  | 4.72 ± 0.198 |  |  | 
3 | Clc1c(Cl)c(Cl)c2ccccc2c1Cl [naphthalene, 1,2,3,4-tetrachloro-] | 470.75 ± 3.2 | 454.25 ± 3.2 | 2.76 ± 0.184 | 0.318 ± 0.172 | 440.45 ± 3.2 | 2.52 ± 0.182
4 | Clc1cc(Cl)c2cc(Cl)cc(Cl)c2c1 [1,3,5,7-tetrachloronaphthalene] | 452.95 ± 3.2 |  | 6.49 ± 0.215 |  |  | 
5 | Clc1cc2c(Cl)ccc(Cl)c2c(Cl)c1Cl [1,2,3,5,8-pentachloronaphthalene] | 453.25 ± 3.2 | 443.35 ± 3.2 | 2.02 ± 0.179 | 0.22 ± 0.172 | 387.75 ± 3.2 | 3.44 ± 0.189
6 | Clc1cc2ccccc2c(Cl)c1Cl [naphthalene, 1,2,3-trichloro-] | 354.65 ± 3.2 |  | 4.41 ± 0.196 |  |  | 
7 | Clc1cc2ccc(Cl)c(Cl)c2c(Cl)c1Cl [naphthalene, 1,2,3,7,8-pentachloro-] | 381.55 ± 3.2 |  | 4.19 ± 0.194 |  |  | 
8 | Clc1cc2c(Cl)c(Cl)c(Cl)c(Cl)c2c(Cl)c1Cl [naphthalene, 1,2,3,4,5,6,7-heptachloro-] | 455.95 ± 3.2 | 454.45 ± 3.2 | 2.09 ± 0.179 | 2.04 ± 0.179 |  | 
9 | Clc1cc(Cl)c2c(Cl)c(Cl)cc(Cl)c2c1Cl [1,2,4,5,6,8-hexachloronaphthalene] | 449.35 ± 3.2 |  | 6.9 ± 0.22 |  |  | 
10 | Clc1ccc2ccc(Cl)c(Cl)c2c1Cl [naphthalene, 1,2,7,8-tetrachloro-] | 401.25 ± 3.2 |  | 3.49 ± 0.189 |  |  | 
11 | Clc1cc2cc(Cl)c(Cl)c(Cl)c2cc1Cl [naphthalene, 1,2,3,6,7-pentachloro-] | 416.55 ± 3.2 |  | 5.48 ± 0.206 |  |  | 
12 | Clc1cc2c(Cl)cc(Cl)c(Cl)c2cc1Cl [naphthalene, 1,2,4,6,7-pentachloro-] | 404.25 ± 3.2 |  | 5.4 ± 0.206 |  |  | 
13 | Clc1cc(Cl)c2cc(Cl)c(Cl)c(Cl)c2c1 [1,2,3,5,7-pentachloronaphthalene] | 444.85 ± 3.2 |  | 6.15 ± 0.213 |  |  | 

From the NIST ThermoML archive (doi:10.1016/j.tca.2006.04.011)
